Data: patent publication US5641804A, “Fungicidal compound comprising a cyclic polylactone” (Novo Nordisk A/S, priority 1992, dated 1997)
Converted amounts (≈) assume the structure as drawn.

Assays:
nerve growth factor = conditions: cited from earlier work
Pyrenophora teres = test: Agar well inhibition zone, Pyrenophora teres (Pt); type: cell-based; design: key to inhibition zone Pt: clear; diffuse; very diffuse; +: very weak; conditions: 15 μl per well, 3 days at 25° C.; for zone of inhibition at 100 µg/mL / zone of inhibition at 500 µg/mL / zone of inhibition at 1000 µg/mL: Pyrenophora teres, 72 h; for zone of inhibition at 500 µg/mL: 0.5 mg/ml; for zone of inhibition at 1000 µg/mL: 1.0 mg/ml
Experimental: Pyrenophora teres (Pt) net blotch disease
(§1) Each of the above mentioned 9 pathogens were separately innoculated into 100 ml of potato dextrose (PD) bouillon and shaken at 200 rpm at 25° C. for 7 days. The mycelium was harvested and homogenized for about 10 seconds in a Warring blender and 1-5 ml of the blended mycelium was transferred to petri dishes with a diameter of 14 cm. […] 20 ml of potato dextrose agar (PDA) having a temperature of 45° C. were poured into each of the petri dishes and thorougly mixed with the blended mycelium present therein. When the agar had solidified, wells of a diameter of 4 mm were punched in the agar, and 15 μl of test solutions containing varicus concentrations of compound Ia, Ib and IIa dissolved in ethanol was applied to each well. The plates were incubated for three days at 25° C. and the inhibition zones measured (in mm). […]

Phoma betae = test: Agar well inhibition zone, Phoma betae (Pb); type: cell-based; conditions: 15 μl per well, 3 days at 25° C.; for zone of inhibition at 500 µg/mL: 0.5 mg/ml
Experimental: Phoma betae (Pb) seedling black rot, black leg
as §1

Botrytis cinerea [1] = test: Fungicidal activity in vivo against Botrytis cinerea on sprayed plants; conditions: spray to run off, assessed after 6 days
Experimental: Activity of the compounds Ia and Ib against Botrytis cinerea Host: Lycopersicon esculentum (tomato, var. First in Field) […] plants (5 weeks old) were sprayed to run off with liquid solutions using a handhold sprayer (Bink Bullows 900). The solution (70% EtOH) had different concentrations of the compounds Ia and Ib. The plants were kept 24 hours in a green house to dry before they were inoculated with a spore suspension containing 1×10^5 spores/ml in 25% grape juice. The inoculation was carried out with a handhold atomizer (Wagner, Pico Bel). The plants were then incubated (16 hours light (1000 lux) and 8 hours dark) at 15°-20° C. in clear polyethylene bags to raise the relative humidity to 95-100%. After 6 days the assessment was done.

Botrytis cinerea [2] = test: Agar well inhibition zone, Botrytis cinerea, mycelium plates (Bc1); type: cell-based; design: key to inhibition zone Bc1: clear; diffuse; very diffuse; +: very weak; conditions: 15 μl per well, 3 days at 25° C.
Experimental: (§2) Botrytis cinerea (Bc) grey mould
as §1

Sclerotinia sclerotiorum = test: Agar well inhibition zone, Sclerotinia sclerotiorum (Ss); type: cell-based; design: key to inhibition zone Ss: clear; diffuse; very diffuse; +: very weak; conditions: 15 μl per well, 3 days at 25° C.
Experimental: Sclerotinia sclerotiorum (Ss) white mould disease, stem rot
as §1

Ascochyta pisi = test: Agar well inhibition zone, Ascochyta pisi (Ap); type: cell-based; design: key to inhibition zone Ap: clear; diffuse; very diffuse; +: very weak; conditions: 15 μl per well, 3 days at 25° C.; for zone of inhibition at 1000 µg/mL: 1.0 mg/ml
Experimental: Ascochyta pisi (Ap) leaf, stem and pod rot
as §1

Botrytis cinerea [3] = test: Agar well inhibition zone, Botrytis cinerea, plates made from spores (Bc2); type: cell-based; conditions: for appearance of Bc zones / time of incubation after which Bc zones could be seen: Bc plates; for zone of inhibition at 500 µg/mL: 0.5 mg/ml; for zone of inhibition at 1000 µg/mL: 1.0 mg/ml
Experimental: as §2
(§3) Each of the above mentioned 9 pathogens were separately innoculated into 100 ml of potato dextrose (PD) bouillon and shaken at 200 rpm at 25° C. for 7 days. The mycelium was harvested and homogenized for about 10 seconds in a Warring blender and 1-5 ml of the blended mycelium was transferred to petri dishes with a diameter of 14 cm. […] 20 ml of potato dextrose agar (PDA) having a temperature of 45° C. were poured into each of the petri dishes and thorougly mixed with the blended mycelium present therein. When the agar had solidified, wells of a diameter of 4 mm were punched in the agar, and 15 μl of test solutions containing varicus concentrations of compound Ia, Ib and IIa dissolved in ethanol was applied to each well. The plates were incubated for three days at 25° C. and the inhibition zones measured (in mm).
(§4) The experiments were repeated and in the second run, Bc plates were made from Bc spores (the plates were termed Bc2) as such plates may result in a more uniform growth.

[4] = system: mouse peritoneal macrophage; test: Mouse peritoneal macrophage assay, cellular ATP (viability); type: cell-based
[5] = system: mouse peritoneal macrophage; test: Mouse peritoneal macrophage assay, chemiluminescence (phagocytosis); type: cell-based
plant pathogenic fungi = test: In vitro fungicidal activity spectrum over the pathogens tested; type: cell-based
Experimental: The following pathogens were used:
as §3, §4

Monilinia fructigena = test: Agar well inhibition zone, Monilinia fructigena (Mf); type: cell-based; conditions: 15 μl per well, 3 days at 25° C.; for zone of inhibition at 500 µg/mL: 0.5 mg/ml; for zone of inhibition at 1000 µg/mL: 1.0 mg/ml
Experimental: Monilinia fructigena (Mf) brown rot, fruit rot
as §1

Phoma lingam = test: Agar well inhibition zone, Phoma lingam (Pl); type: cell-based; design: key to inhibition zone P1: clear; diffuse; very diffuse; +: very weak; conditions: 15 μl per well, 3 days at 25° C.; for zone of inhibition at 1000 µg/mL: 1.0 mg/ml
Experimental: Phoma lingam (Pl) canker and dry rot
as §1

Alternaria alternata = test: Agar well inhibition zone, Alternaria alternata (Aa); type: cell-based; conditions: 15 μl per well, 3 days at 25° C.; for zone of inhibition at 500 µg/mL: 0.5 mg/ml; for zone of inhibition at 1000 µg/mL: 1.0 mg/ml
Experimental: Alternaria alternata (Aa) black mould coverings, leaf spot
as §3, §4

[6] = Neocamarosporium betae, 72 h, 0.1 mg/ml
[7] = Botrytis cinerea, 72 h, 0.1 mg/ml
[8] = Ascochyta pisi, 72 h, 0.1 mg/ml
[9] = Botrytis cinerea, 72 h, 15 μl per well, 3 days at 25° C., plates from spores
[10] = Plenodomus lingam, 72 h, read-out: inhibition zone P1
[11] = 0.1 mg/ml, 15 μl per well, 3 days at 25° C., plates from spores

SMILES | zone of inhibition at 100 µg/mL (Pyrenophora teres; 0.1 mg/ml) [mm] | zone of inhibition at 500 µg/mL (Pyrenophora teres) [mm] | zone of inhibition at 1000 µg/mL (Pyrenophora teres) [mm] | zone of inhibition at 100 µg/mL (Phoma betae; [6]) [mm] | zone of inhibition at 500 µg/mL (Phoma betae; Neocamarosporium betae, 72 h) [mm] | zone of inhibition at 100 µg/mL (Botrytis cinerea [2]; [7]) [mm] | zone of inhibition at 100 µg/mL (Ascochyta pisi; [8]) [mm] | zone of inhibition at 1000 µg/mL (Ascochyta pisi; Ascochyta pisi, 72 h) [mm] | appearance of Bc zones (Botrytis cinerea [3]) | time of incubation after which Bc zones could be seen (Botrytis cinerea [3]) [days] | zone of inhibition at 500 µg/mL (Botrytis cinerea [3]; [9]) [mm] | zone of inhibition at 1000 µg/mL (Botrytis cinerea [3]; [9]) [mm] | IC50 [4] [µg/mL] | IC50 [5] [µg/mL] | zone of inhibition at 500 µg/mL (Monilinia fructigena; Monilinia fructigena, 72 h) [mm] | zone of inhibition at 1000 µg/mL (Monilinia fructigena; Monilinia fructigena, 72 h) [mm] | zone of inhibition at 1000 µg/mL (Phoma lingam; [10]) [mm] | zone of inhibition at 500 µg/mL (Alternaria alternata; Alternaria alternata, 72 h) [mm] | zone of inhibition at 1000 µg/mL (Alternaria alternata; Alternaria alternata, 72 h) [mm] | inhibition zone Ss (Sclerotinia sclerotiorum; 0.1 mg/ml) | further results
CC1Cc2cc(O)cc(O)c2C(=O)OC(C)CC(=O)OC(C)Cc2cc(O)cc(O)c2C(=O)OC(C)CC(=O)OC(CO)CC(=O)O1 (centres unmarked) [NG-012] | – | – | – | – | – | – | – | – | – | – | – | – | – | – | – | – | – | – | – | – | nerve growth factor potentiation (nerve growth factor): nerve growth factor potentiator
C[C@@H]1CC(=O)O[C@H](C)Cc2cc(O)cc(O)c2C(=O)O[C@H](C)CC(=O)O[C@H](C)Cc2cc(O)cc(O)c2C(=O)O[C@H](C)CC(=O)O1 [Compound Ib] | 0 | 17 | 33 | 0 | 17 | 0 | 0 | 15 | very clear | ≤ 2 | 26 | 30 | 6 (≈ 9.28 µM) | 6 (≈ 9.28 µM) | 0 | 25 | 12 | 15 | 17 | – | zone of inhibition at 1000 µg/mL (Phoma betae; Neocamarosporium betae, 72 h, 1.0 mg/ml): 20 mm; protection (Botrytis cinerea [1]; 36 ppm): approx. 50%; protection (Botrytis cinerea [1]; 360 ppm): approx. 50%; zone of inhibition at 500 µg/mL (Botrytis cinerea [2]; Botrytis cinerea, 72 h, 0.5 mg/ml): 0 mm; zone of inhibition at 1000 µg/mL (Botrytis cinerea [2]; Botrytis cinerea, 72 h, 1.0 mg/ml): 0 mm; zone of inhibition at 100 µg/mL (Sclerotinia sclerotiorum; Sclerotinia sclerotiorum, 72 h, 0.1 mg/ml): 0 mm; zone of inhibition at 500 µg/mL (Sclerotinia sclerotiorum; Sclerotinia sclerotiorum, 72 h, 0.5 mg/ml): 0 mm; zone of inhibition at 1000 µg/mL (Sclerotinia sclerotiorum; Sclerotinia sclerotiorum, 72 h, 1.0 mg/ml): 0 mm; inhibition zone Ap (Ascochyta pisi; 0.5 mg/ml): +; zone of inhibition at 100 µg/mL (Botrytis cinerea [3]; Botrytis cinerea, 72 h, 0.1 mg/ml, 15 μl per well, 3 days at 25° C., plates from spores): 0 mm; activity spectrum (plant pathogenic fungi; all pathogens tested, Table 2): active, to a higher or lower degree, towards all of the pathogens tested; zone of inhibition at 100 µg/mL (Monilinia fructigena; Monilinia fructigena, 72 h, 0.1 mg/ml): 0 mm; inhibition zone P1 (Phoma lingam; 0.5 mg/ml): +; zone of inhibition at 100 µg/mL (Phoma lingam; Plenodomus lingam, 72 h, 0.1 mg/ml, read-out: inhibition zone P1): 0 mm; zone of inhibition at 100 µg/mL (Alternaria alternata; Alternaria alternata, 72 h, 0.1 mg/ml): 0 mm
C[C@@H]1Cc2cc(O)cc(O)c2C(=O)O[C@H](C)CC(=O)OC[C@@H](O)CC(=O)O[C@H](C)Cc2cc(O)cc(O)c2C(=O)O[C@H](C)CC(=O)O1 [Compound IIa] | – | 0 | 0 | 0 | 0 | – | 0 | 0 | very diffuse | ≥ 3 | 37 | 45 | < 10 | < 10 | 40 | 40 | 18 | 0 | 0 | 40d mm | inhibition zone Pt (Pyrenophora teres; 0.1 mg/ml): +; inhibition zone Bc1 (Botrytis cinerea [2]; 0.1 mg/ml): +; inhibition zone Bc1 (Botrytis cinerea [2]; 0.5 mg/ml): +; inhibition zone Bc1 (Botrytis cinerea [2]; 1.0 mg/ml): +; inhibition zone Ss (Sclerotinia sclerotiorum; 0.5 mg/ml): +; inhibition zone Ss (Sclerotinia sclerotiorum; 1.0 mg/ml): +; zone of inhibition at 500 µg/mL (Ascochyta pisi; Ascochyta pisi, 72 h, 0.5 mg/ml): 0 mm; inhibition zone Bc2 (Botrytis cinerea [3]; [11]): 30d mm; number of pathogens against which compound was active (plant pathogenic fungi; with respect to Bc only for the plate containing spores): 5 pathogens; inhibition zone Mf (Monilinia fructigena; 0.1 mg/ml): 40v; inhibition zone P1 (Phoma lingam; 0.1 mg/ml): 31d mm; zone of inhibition at 500 µg/mL (Phoma lingam; Plenodomus lingam, 72 h, 0.5 mg/ml, read-out: inhibition zone P1): 14 mm
C[C@@H]1Cc2cc(O)cc(O)c2C(=O)O[C@H](C)CC(=O)OC[C@@H](O)CC(=O)O[C@H](C)Cc2cc(O)cc(O)c2C(=O)O[C@H](C)CC(=O)O1 [IIIa] | 0 | – | – | – | – | 0 | – | – | – | – | – | – | – | – | – | – | – | – | – | 0 mm | inhibition zone Pb (Phoma betae; 0.1 mg/ml): 0 mm; inhibition zone Ap (Ascochyta pisi; 0.1 mg/ml): 0 mm; inhibition zone Bc2 (Botrytis cinerea [3]; [11]): 0 mm; inhibition zone Mf (Monilinia fructigena; 0.1 mg/ml): 0 mm; inhibition zone P1 (Phoma lingam; 0.1 mg/ml): 0 mm; inhibition zone Aa (Alternaria alternata; 0.1 mg/ml): 0 mm
